In patent publication US20250326639A1, “METHOD FOR PRODUCING HYDROGEN PEROXIDE” (ARKEMA FRANCE, priority 2022, published 2025):

Experiment: Solubility in water by coulometric Karl Fischer titration, ASTM-D6304
Type: physicochemical
Details: not given
Excerpt: The solubility in water may be determined by coulometric Karl Fischer titration in accordance with the standard ASTM-D6304.
For CC1CC(=O)O1 (stereo not drawn) [β-butyrolactone], the “Solubility in water (mg/kg)” value was 158.9 10^3 mg/kg. With CCCCCCCC1CCCC(=O)O1 (stereo not drawn) [δ-dodecalactone] the “Solubility in water” value was 1113 mg/kg. For O=C1CCCO1 [γ-butyrolactone], the “Solubility in water (mg/kg)” value was 484.3 10^3 mg/kg.

Experiment: Vapour pressure by ebulliometry, ASTM-E1719
Type: physicochemical
Details: not given
Excerpt: The vapour pressure may be determined by ebulliometry in accordance with the standard ASTM-E1719.
In the case of CC1CC(=O)O1 (stereo not drawn) [β-butyrolactone], the “Vapour pressure (Pa)” value is reported as 212 Pa. In the case of CCCCCCCC1CCCC(=O)O1 (stereo not drawn) [δ-dodecalactone], the “Vapour pressure (Pa)” value is reported as 0.05 Pa. For O=C1CCCO1 [γ-butyrolactone], the “Vapour pressure (Pa)” value was 87 Pa. For O=C1CCO1 [β-propiolactone], the “Vapour pressure (Pa)” value was 418 Pa.

Experiment: Flash point, closed-cup apparatus, ASTM-D3278
Type: physicochemical
Details: not given
Excerpt: The flash point may be determined using a closed-cup apparatus in accordance with the standard ASTM-D3278.
In the case of CC1CC(=O)O1 (stereo not drawn) [β-butyrolactone], the “Flash point (° C.)” value is reported as 74 °C. With CCCCCCCC1CCCC(=O)O1 (stereo not drawn) [δ-dodecalactone] the “Flash point (° C.)” value was 168 °C. For O=C1CCCO1 [γ-butyrolactone], the “Flash point (° C.)” value was 97 °C. With O=C1CCO1 [β-propiolactone] the “Flash point (° C.)” value was 70 °C.

Experiment: Specific gravity by hydrometer, ASTM-D891
Type: physicochemical
Details: not given
Excerpt: The specific gravity may be determined by means of a hydrometer in accordance with the standard ASTM-D891.
CC1CC(=O)O1 (stereo not drawn) [β-butyrolactone] gave a Specific gravity of 1.076. For CCCCCCCC1CCCC(=O)O1 (stereo not drawn) [δ-dodecalactone], the Specific gravity was 0.962. With O=C1CCCO1 [γ-butyrolactone] the Specific gravity was 1.136. O=C1CCO1 [β-propiolactone] showed a Specific gravity of 1.137.

Experiment: Solubility of 2-ethyltetrahydroanthrahydroquinone in tested solvents (protocol of the patent)
Details: 2-THEAHQ dissolved in the tested lactone solvent; hydrogenation of parent quinone, cooled until precipitation, liquid chromatography
Procedure: In the following examples, the solubilities of 2-ethyltetrahydroanthrahydroquinone (2-THEAHQ) were tested in different solvents in accordance with the protocols detailed below.
For 2-ethyltetrahydroanthrahydroquinone, the solubilities were determined by dissolving a weighed amount of the parent quinone in the tested solvent. After the addition of a Pd-based catalyst to the solution, the mixture was hydrogenated until hydrogen absorption ceases, and then cooled until precipitation occurs.
The samples were analysed by liquid chromatography. Reference mixtures were prepared for calibration.
For CCCCCCCC1CCCC(=O)O1 (stereo not drawn) [δ-dodecalactone], the “Solubility of 2-THEAHQ” value was 276 mg/mL. For O=C1CCO1 [β-propiolactone], the “Solubility of 2-THEAHQ” value was 70 mg/mL. With CCCCC1CCC(=O)O1 (stereo not drawn) [γ-octalactone] the “Solubility of 2-THEAHQ” value was 281 mg/mL.
